Assay results reported in patent publication US20260242395A1, “AMINOHETEROARYL KINASE INHIBITORS” (ALLORION THERAPEUTICS INC, priority 2022, published 2026).

Columns and labels:
Type in all cases: biochemical
[1] = target: T1, CDK6/CyclinD3 (Homo sapiens, UniProt Q00534); assay: CDK6/CyclinD3 kinase inhibitory activity (Caliper mobility shift); details: enzyme 15 nM, ATP 800 μM, 28° C. 30 min; read-out: CDK6/Cyclin D3 IC50
T1 construct: purchased Carna 04-107
Procedure, shortened: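 Compound preincubated 10 min at room temperature with CDK6/CyclinD3 (15 nM final) in HEPES pH 7.5/MgCl2/DTT buffer; reaction with 5-FAM peptide (3000 nM) and ATP 800 μM, 30 min at 28°C, stopped with EDTA. Substrate/product separated by microfluidic mobility shift; % conversion converted to % inhibition, IC50 from dose-response curves.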

[2] = target: T2, CDK4/CyclinD1 (Homo sapiens, UniProt P11802); assay: CDK4/CyclinD1 kinase inhibitory activity (Caliper mobility shift); details: enzyme 20 nM, ATP 672 uM, 28° C. 30 min; read-out: CDK4/Cyclin D1 IC50
T2 construct: purchased ProQinase 0142-0143-1
Procedure, shortened: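 Recombinant CDK4/Cyclin D1 (20 nM final) preincubated 10 min at room temperature with compound in HEPES pH 7.5 buffer with MgCl2, DTT and Triton X-100. Reaction started with 3000 nM FAM-labelled peptide and 672 uM ATP, run 30 min at 28° C, stopped with EDTA. Mobility-shift % conversion gave % inhibition, and IC50 came from dose-response fits.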

[3] = target: T3, CDK9/CyclinT1 (Homo sapiens, UniProt P50750); assay: CDK9/CyclinT1 kinase inhibitory activity (Caliper mobility shift); details: enzyme 12.5 nM, ATP 10M, 28° C. 30 min; read-out: CDK9/Cyclin T1 IC50
T3 construct: purchased Millipore 14-685M
Description: CDK9/CyclinT1 kinase inhibitory activity (IC50): 5 μl of various dilutions of test compound in 1× kinase buffer (20 mM HEPES, pH 7.5, 10 mM MgCl2, 2 mM DTT and 0.01% Triton X-100) was mixed with 10 μL of CDK9/CyclinT1 (Millipore, 14-685M #, final concentration 12.5 nM in 1× Kinase buffer) in 384 plates and incubated at room temperature for 10 min. To initiate each reaction, 10 μL of peptide solution containing fluorescently-labeled -peptide CTD3 (5-FAM-[…], GL, SY346885 #, final concentration 3000 nM) and ATP (final concentration […]) in 1× Kinase buffer was added to each of the wells containing test compound and CDK9/CyclinT1 mixture. The reaction is then allowed to proceed at 28° C. for 30 min and terminated by the addition of 25 μL stop buffer (100 mM HEPES pH 7.5, 50 mM EDTA, 0.2% Coating Reagent #3 (Perkin Elmer, 760050 #) and 0.015% Brij-35).
Following the kinase reaction, Caliper EZ reader II (Downstream voltages: −500V, Upstream voltages: −2250V, Base pressure −0.5 PSI, Screen pressure −1.2 PSI) was used to separate the phosphorylated (product) and the unphosphorylated (substrate) fluorescently-labeled peptide CTD3 based on their different mobility. Both substrate and product were measured and the ratio of these values were used to generate % conversion by Caliper EZ reader II. These conversion values were then transformed into % inhibition of kinase activity using the formula: % Inhibition=[(MA−X)/(MA−MI)]×100% where MA=conversion value of DMSO only controls, MI=conversion value of no enzyme controls and X=conversion value at any given compound dose. IC50 values were then calculated by plotting dose-response curves and then using the XLfit application in Excel software.

T3 sequence (P50750 whole entry): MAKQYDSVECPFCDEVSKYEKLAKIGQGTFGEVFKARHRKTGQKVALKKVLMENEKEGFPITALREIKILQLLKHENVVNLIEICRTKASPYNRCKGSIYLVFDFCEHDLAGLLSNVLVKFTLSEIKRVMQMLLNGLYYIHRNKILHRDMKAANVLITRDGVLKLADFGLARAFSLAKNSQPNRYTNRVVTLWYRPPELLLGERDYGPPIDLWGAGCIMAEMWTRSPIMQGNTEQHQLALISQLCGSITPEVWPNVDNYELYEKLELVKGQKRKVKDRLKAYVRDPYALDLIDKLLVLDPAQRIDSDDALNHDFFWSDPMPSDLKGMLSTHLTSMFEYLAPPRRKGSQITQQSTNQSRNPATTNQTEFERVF
T3 sequence (O60563 whole entry partner): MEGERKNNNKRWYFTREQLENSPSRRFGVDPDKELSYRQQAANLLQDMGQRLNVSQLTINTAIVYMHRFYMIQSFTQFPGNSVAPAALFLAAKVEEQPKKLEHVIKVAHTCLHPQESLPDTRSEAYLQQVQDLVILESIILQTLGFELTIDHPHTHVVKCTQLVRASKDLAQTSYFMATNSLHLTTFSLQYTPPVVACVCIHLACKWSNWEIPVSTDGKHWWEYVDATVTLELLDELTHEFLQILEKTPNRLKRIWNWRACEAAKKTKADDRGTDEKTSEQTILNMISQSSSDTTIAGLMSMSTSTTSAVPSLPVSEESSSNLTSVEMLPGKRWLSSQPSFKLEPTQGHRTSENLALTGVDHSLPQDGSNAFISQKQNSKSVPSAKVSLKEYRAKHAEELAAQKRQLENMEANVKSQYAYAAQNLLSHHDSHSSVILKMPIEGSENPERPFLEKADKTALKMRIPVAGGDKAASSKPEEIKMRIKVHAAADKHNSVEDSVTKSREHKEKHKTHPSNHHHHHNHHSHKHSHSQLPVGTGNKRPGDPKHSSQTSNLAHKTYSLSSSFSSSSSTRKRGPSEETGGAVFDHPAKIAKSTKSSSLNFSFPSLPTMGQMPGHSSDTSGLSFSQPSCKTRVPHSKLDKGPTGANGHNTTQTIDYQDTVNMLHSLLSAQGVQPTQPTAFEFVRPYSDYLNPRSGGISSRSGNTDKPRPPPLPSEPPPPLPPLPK
T1 sequence (Q00534 whole entry): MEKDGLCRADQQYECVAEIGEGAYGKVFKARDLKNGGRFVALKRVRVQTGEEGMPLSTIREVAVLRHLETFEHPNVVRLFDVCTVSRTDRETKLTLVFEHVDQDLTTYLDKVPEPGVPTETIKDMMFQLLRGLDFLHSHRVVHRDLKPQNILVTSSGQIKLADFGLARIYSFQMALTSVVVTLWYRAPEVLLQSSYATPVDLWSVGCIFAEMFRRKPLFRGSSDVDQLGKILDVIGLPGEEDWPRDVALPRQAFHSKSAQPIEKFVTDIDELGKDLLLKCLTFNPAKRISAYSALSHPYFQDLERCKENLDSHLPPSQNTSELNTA
T1 sequence (P30281 whole entry partner): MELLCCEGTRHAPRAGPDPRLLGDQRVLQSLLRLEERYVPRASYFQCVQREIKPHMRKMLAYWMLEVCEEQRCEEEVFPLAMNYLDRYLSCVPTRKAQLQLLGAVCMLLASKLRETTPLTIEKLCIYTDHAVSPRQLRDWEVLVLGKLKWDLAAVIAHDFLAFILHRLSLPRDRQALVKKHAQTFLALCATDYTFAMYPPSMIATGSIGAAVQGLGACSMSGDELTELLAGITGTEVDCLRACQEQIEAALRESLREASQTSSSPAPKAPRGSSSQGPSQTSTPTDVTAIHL
T2 sequence (P11802 whole entry): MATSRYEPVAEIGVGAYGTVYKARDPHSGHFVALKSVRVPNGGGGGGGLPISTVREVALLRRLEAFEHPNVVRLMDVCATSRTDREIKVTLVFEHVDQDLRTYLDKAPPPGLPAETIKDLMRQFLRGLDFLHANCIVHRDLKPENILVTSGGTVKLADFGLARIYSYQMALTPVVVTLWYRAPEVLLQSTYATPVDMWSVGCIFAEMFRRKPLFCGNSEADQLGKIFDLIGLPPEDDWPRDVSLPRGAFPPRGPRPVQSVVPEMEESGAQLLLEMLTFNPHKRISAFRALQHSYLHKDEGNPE
T2 sequence (P24385 whole entry partner): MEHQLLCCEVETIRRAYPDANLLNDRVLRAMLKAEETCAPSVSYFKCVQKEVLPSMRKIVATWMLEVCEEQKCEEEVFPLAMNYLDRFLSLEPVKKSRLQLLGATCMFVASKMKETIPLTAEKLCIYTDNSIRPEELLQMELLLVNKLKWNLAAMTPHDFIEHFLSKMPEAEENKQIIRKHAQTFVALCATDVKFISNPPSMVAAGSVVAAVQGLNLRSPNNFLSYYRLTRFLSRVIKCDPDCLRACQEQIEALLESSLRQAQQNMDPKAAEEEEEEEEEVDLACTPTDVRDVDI

Structure (SMILES) | IC50 [1] [nM] | IC50 [2] [nM] | IC50 [3] [nM]
CC(C)(O)c1cnc2c(F)cc(-c3nc(N[C@@H]4CCOC[C@H]4O)ncc3F)cc2c1Cl [Example 22, (3S,4R)-4-((4-(4-chloro-8-fluoro-3-(2-hydroxypropan-2-yl)quinolin-6-yl)-5-fluoropyrimidin-2-yl)amino)tetrahydro-2H-pyran-3-ol] | 10 to 100 | < 10 | 100 to 1000
Cc1c(C(C)(C)O)cnc2c(F)cc(-c3nc(N[C@@H]4CCOC[C@H]4O)ncc3F)cc12 [Example 23, (3S,4R)-4-((5-fluoro-4-(8-fluoro-3-(2-hydroxypropan-2-yl)-4-methylquinolin-6-yl)pyrimidin-2-yl)amino)tetrahydro-2H-pyran-3-ol] | 10 to 100 | < 10 | 100 to 1000
O[C@@H]1COCC[C@H]1Nc1cc(-c2cc(F)c3ncc4c(c3c2)CNCC4)c(Cl)cn1 [Example 25] | 10 to 100 | < 10 | 10 to 100
CC(C)(N)c1cnc2ccc(-c3nc(N[C@@H]4CCOC[C@H]4O)ncc3Cl)cc2c1 [Example 26] | ≥ 1000 | 10 to 100 | 100 to 1000
CC1(C)Cc2cnc3c(F)cc(-c4nc(N[C@@H]5CCOC[C@H]5O)ncc4Cl)cc3c2CN1 [Example 30] | 10 to 100 | < 10 | 10 to 100
CNC(C)(C)c1cnc2c(F)cc(-c3nc(N[C@@H]4CCOC[C@H]4O)ncc3Cl)cc2c1 [Example 36] | 100 to 1000 | 10 to 100 | 100 to 1000
Cc1nc2c(F)cc(-c3nc(N[C@@H]4CCOC[C@H]4O)ncc3Cl)cc2c2c1CCN(C)C2 [Example 37] | 100 to 1000 | < 10 | ≥ 1000
CC(C)(O)c1cnc2c(F)cc(-c3nc(N[C@@H]4CCOC[C@H]4O)ncc3C#N)cc2c1Cl [Example 41] | 10 to 100 | < 10 | ≥ 1000
CC1(C)Cc2cnc3c(F)cc(-c4nc(N[C@@H]5CCOC[C@H]5O)ncc4C#N)cc3c2CN1 [Example 49] | 100 to 1000 | < 10 | 100 to 1000
Cc1c(C(C)(C)O)cnc2c(C)cc(-c3nc(N[C@@H]4CCOC[C@H]4O)ncc3Cl)cc12 [Example 58] | 100 to 1000 | < 10 | ≥ 1000
Cc1nc2c(F)cc(-c3nc(N[C@@H]4CCOC[C@H]4O)ncc3F)cc2c2c1CC1(CC1)NC2 [Example 65] | 100 to 1000 | < 10 | 100 to 1000
[2H]c1nc2c(F)cc(-c3nc(N[C@@H]4CCOC[C@H]4O)ncc3C)cc2c2c1CC1(CC1)NC2 [Example 67] | ≥ 1000 | 10 to 100 | 100 to 1000
[2H]c1nc(N[C@@H]2CCOC[C@H]2O)nc(-c2cc(F)c3nc(C)c(C(C)(C)O)cc3c2)c1F [Example 83] | 100 to 1000 | < 10 | 100 to 1000
[2H]c1nc2c(F)cc(-c3nc(N[C@@H]4CCOC[C@H]4O)ncc3F)cc2c(C)c1C(C)(C)O [Example 94] | 10 to 100 | < 10 | 100 to 1000
Cc1nc2c(F)cc(-c3nc(N[C@@H]4CCOC[C@H]4O)ncc3Cl)cc2c2c1CC(C)(C)NC2 [Example 98] | 100 to 1000 | < 10 | 100 to 1000
[2H]c1nc2c(F)cc(-c3nc(N[C@@H]4CCOC[C@H]4O)ncc3C)cc2c2c1CC(C)(C)NC2 [Example 102] | 100 to 1000 | < 10 | 100 to 1000
CC1(C)Cc2cnc3c(F)cc(-c4ccnc(N[C@@H]5CCOC[C@H]5O)n4)cc3c2CN1 [Example 107] | 100 to 1000 | < 10 | 100 to 1000

The remaining lines, values ahead:

IC50 [1] [nM] | IC50 [2] [nM] | IC50 [3] [nM] | Structure (SMILES)
100 to 1000 | < 10 | 100 to 1000 | O[C@@H]1COCC[C@H]1Nc1ncc(Cl)c(-c2cc(F)c3ncc4c(c3c2)CNC2(CC2)C4)n1 [Example 21, (3S,4R)-4-((5-chloro-4-(7-fluoro-1,4-dihydro-2H-spiro[benzo[c][2,6]naphthyridine-3,1′-cyclopropan]-9-yl)pyrimidin-2-yl)amino)tetrahydro-2H-pyran-3-ol]
10 to 100 | < 10 | 10 to 100 | CC1(C)Cc2cnc3c(F)cc(-c4nc(N[C@@H]5CCOC[C@H]5O)ncc4F)cc3c2CN1 [Example 24, (3S,4R)-4-((5-fluoro-4-(7-fluoro-3,3-dimethyl-1,2,3,4-tetrahydrobenzo[c][2,6]naphthyridin-9-yl)pyrimidin-2-yl)amino)tetrahydro-2H-pyran-3-ol]
100 to 1000 | 10 to 100 | 100 to 1000 | O[C@@H]1COCC[C@H]1Nc1ncc(Cl)c(-c2cc(F)c3ncc(C4(O)CC4)cc3c2)n1 [Example 29]
10 to 100 | < 10 | ≥ 1000 | CC(C)(O)c1cnc2c(F)cc(-c3nc(Nc4ccc(-c5c[nH]cn5)cn4)ncc3F)cc2c1Cl [Example 52]
100 to 1000 | < 10 | 10 to 100 | O[C@@H]1COCC[C@H]1Nc1ncc(F)c(-c2cc(F)c3ncc4c(c3c2)CNC2(CC2)C4)n1 [Example 56]
100 to 1000 | < 10 | 100 to 1000 | [2H]C([2H])([2H])C(O)(c1cc2cc(-c3nc(N[C@@H]4CCOC[C@H]4O)ncc3Cl)cc(F)c2nc1C)C([2H])([2H])[2H] [Example 60, (3S,4R)-4-((5-chloro-4-(8-fluoro-3-(2-hydroxypropan-2-yl-1,1,1,3,3,3-d6)-2-methylquinolin-6-yl)pyrimidin-2-yl)amino)tetrahydro-2H-pyran-3-ol]
10 to 100 | < 10 | 100 to 1000 | [2H]c1nc(N[C@@H]2CCOC[C@H]2O)nc(-c2cc(F)c3nc([2H])c4c(c3c2)CNC2(CC2)C4)c1Cl [Example 68]
10 to 100 | < 10 | 10 to 100 | [2H]c1nc2c(F)cc(-c3nc(N[C@@H]4CCOC[C@H]4O)ncc3Cl)cc2c2c1CC(C)(C)NC2 [Example 100]
